Values quoted from earlier work in patent publication US8614315B2, “Cefdinir and cefixime formulations and uses thereof” (priority 2010, dated 2013).

How the values were obtained:
[1] = pH 3.2, room temperature
[2] = not given; remark: listed apart in the source

| Structure (SMILES) | solubility in water, methanol, ethanol, acetone and many other organic solvents | solubility in a solution with a pH value of 3.2 [1] [mg/mL] | solubility in ethanol and acetone ([2]; ethanol, acetone) | solubility in ether, ethyl acetate, hexane and water ([2]; ether, ethyl acetate, hexane, water) | solubility in methanol and propylene glycol ([2]; methanol, propylene glycol) |
| --- | --- | --- | --- | --- | --- |
| C=CC1=C(C(=O)O)N2C(=O)[C@@H](NC(=O)/C(=N\O)c3csc(N)n3)[C@H]2SC1 [Cefdinir, (6R,7R)-7-[[(2Z)-(2-amino-4-thiazolyl)(hydroxyimino)acetyl]amino]-3-ethenyl-8-oxo-5-thia-1-azabicyclo[4.2.0]oct-2-en-2-carboxylic acid] | poor solubility | – | – | – | – |
| C=CC1=C(C(=O)O)N2C(=O)[C@@H](NC(=O)/C(=N\OCC(=O)O)c3csc(N)n3)[C@H]2SC1 [Cefixime, (6R,7R)-7-{[2-(2-amino-1,3-thiazol-4-yl)-2-(carboxymethyloxyimino)acetyl]amino}-3-ethenyl-8-oxo-5-thia-1-azabicyclo [4.2.0]oct-2-en-2-carboxylic acid] | – | 0.5 | partially soluble | does not dissolve | freely soluble |
